Measurements: US12534452B2, “N-(1H-imidazol-2-yl)benzamide compound and pharmaceutical composition comprising the same as active ingredient” (KAINOS MEDICINE, INC., priority 2019, dated 2026)

Target: IRAK4 (Homo sapiens (Human), UniProt Q9NWZ3)
Assay: In vitro IRAK4 phosphorylation activity assay
Type: biochemical
Details: [γ-33P]-ATP, myelin basic protein substrate, 40 minutes at room temperature; categories
Procedure: In vitro IRAK4 analysis was performed using N-(1H-imidazol-2-yl)benzamide compounds according to the present invention. All compounds were prepared by dissolving in DMSO. N-(1H-imidazol-2-yl)benzamide compound according to the present invention and other elements for the reaction were added to an assay well. In the standard Kinase Profiler service the preincubation step between the N-(1H-imidazol-2-yl)benzamide compound and kinase was not performed before the reaction.
To the positive control well, all reactants except for the N-(1H-imidazol-2-yl)benzamide compound according to the present invention were added, and DMSO was added to remove the solvent effect. A known control inhibitor having the following structure was added to the blank wells to inhibit kinase activity and establish a base-line.
IRAK4 was incubated with 8 mM MOPS pH 7.0, 0.2 mM EDTA, 0.33 mg/mL myelin basic protein, 10 mM magnesium acetate and [γ-33P]-ATP (specific activity approx. 500 cpm/pmol, concentration as required). The reaction was initiated by the addition of the MgATP mix. After incubation for 40 minutes at room temperature, the reaction was stopped by the addition of 3% phosphoric acid solution. 10 μL of the reaction was then spotted onto a P30 filtermat and washed three times for 5 minutes in 75 mM phosphoric acid and once in methanol prior to drying and scintillation counting.
The results are shown in Table 26 below, where the phosphorylation activity of IC50 values for IRAK4 is shown in categories (A: <50 nM, B: 50-100 nM, C: >100 nM).

IRAK4, sequence (Q9NWZ3 whole entry): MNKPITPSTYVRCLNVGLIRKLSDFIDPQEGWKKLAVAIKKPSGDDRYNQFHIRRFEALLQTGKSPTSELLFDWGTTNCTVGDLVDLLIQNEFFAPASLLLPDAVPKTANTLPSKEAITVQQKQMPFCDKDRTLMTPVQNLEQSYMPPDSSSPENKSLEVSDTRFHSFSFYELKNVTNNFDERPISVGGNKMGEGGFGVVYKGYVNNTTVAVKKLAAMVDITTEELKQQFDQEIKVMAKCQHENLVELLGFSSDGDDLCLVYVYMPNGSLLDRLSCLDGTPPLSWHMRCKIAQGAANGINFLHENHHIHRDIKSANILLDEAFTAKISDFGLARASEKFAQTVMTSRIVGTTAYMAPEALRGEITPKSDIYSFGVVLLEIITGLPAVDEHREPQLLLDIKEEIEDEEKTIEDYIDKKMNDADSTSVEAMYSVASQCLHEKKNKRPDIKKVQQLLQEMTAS

| IC50 | SMILES |
| --- | --- |
| < 50 nM | Cn1cc(-c2cccc(C(=O)Nc3nc(CCCC(=O)N4CCC(N5CCCC5)CC4)cn3-c3ccccc3)c2)cn1 [Example 154, 3-(1-methyl-1H-pyrazol-4-yl)-N-(4-(4-oxo-4-(4-(pyrrolidin-1-yl)piperidin-1-yl)butyl)-1-phenyl-1H-imidazol-2-yl)benzamide] |
| 50 to 100 nM | CN(C)CCCNC(=O)CCCc1cn(-c2ccccc2)c(NC(=O)c2cccc(-c3cnn(C)c3)c2)n1 [Example 163, N-(4-(4-((3-(dimethylamino)propyl)amino)-4-oxobutyl)-1-phenyl-1H-imidazol-2-yl)-3-(1-methyl-1H-pyrazol-4-yl)benzamide] |
| < 50 nM | O=C(Nc1nc(CCCCCCN2CCCCC2)cn1-c1ccccc1)c1cccc(-c2cn[nH]c2)c1 [Example 102, N-(1-phenyl-4-(6-(piperidin-1-yl)hexyl)-1H-imidazol-2-yl)-3-(1H-pyrazol-4-yl)benzamide] |
| < 50 nM | O=C(Nc1nc(CCCC(=O)N2CCCCC2)cn1-c1ccccc1)c1cccc(-c2ccc3[nH]ncc3c2)c1 [Example 246, 3-(1H-indazol-5-yl)-N-(4-(4-oxo-4-(piperidin-1-yl)butyl)-1-phenyl-1H-imidazol-2-yl)benzamide] |
| < 50 nM | Cn1cc(-c2cccc(C(=O)Nc3nc(CCCC(=O)N4CCN(C5CCCCC5)CC4)cn3-c3ccccc3)c2)cn1 [Example 182, N-(4-(4-(4-cyclohexylpiperazin-1-yl)-4-oxobutyl)-1-phenyl-1H-imidazol-2-yl)-3-(1-methyl-1H-pyrazol-4-yl)benzamide] |
| < 50 nM | Cn1cc(-c2cccc(C(=O)Nc3nc(CCCC(=O)NCCCN4CCCCC4)cn3-c3ccccc3)c2)cn1 [Example 158, 3-(1-methyl-1H-pyrazol-4-yl)-N-(4-(4-oxo-4-((3-(piperidin-1-yl)propyl)amino)butyl)-1-phenyl-1H-imidazol-2-yl)benzamide] |
| < 50 nM | O=C(Nc1nc(CCCCCC(=O)N2CCCCC2)cn1-c1ccccc1)c1cccc(-c2cn[nH]c2)c1 [Example 93, N-(4-(6-oxo-6-(piperidin-1-yl)hexyl)-1-phenyl-1H-imidazol-2-yl)-3-(1H-pyrazol-4-yl)benzamide] |
| > 100 nM | O=C(CCc1cn(-c2ccccc2)c(NC(=O)c2cccc(-c3cn[nH]c3)c2)n1)Nc1ccccn1 [Example 15, N-(4-(3-oxo-3-(pyridin-2-ylamino)propyl)-1-phenyl-1H-imidazol-2-yl)-3-(1H-pyrazol-4-yl)benzamide] |
| < 50 nM | O=C(Nc1nc(CCCCCCN2CCCCC2)cn1-c1ccc(F)cc1)c1cccc(-c2cn[nH]c2)c1 [Example 301, N-(1-(4-fluorophenyl)-4-(6-(piperidin-1-yl)hexyl)-1H-imidazol-2-yl)-3-(1H-pyrazol-4-yl)benzamide] |
| > 100 nM | COC[C@@H]1CCCN1NC(=O)Cc1cn(-c2ccccc2)c(NC(=O)c2cccc(-c3cn[nH]c3)c2)n1 [Example 44, (S)—N-(4-(2-((2-(methoxymethyl)pyrrolidin-1-yl)amino)-2-oxoethyl)-1-phenyl-1H-imidazol-2-yl)-3-(1H-pyrazol-4-yl)benzamide] |
| < 50 nM | C[C@@H]1CCCCN1C(=O)CCCCc1cn(-c2ccccc2)c(NC(=O)c2cccc(-c3cn[nH]c3)c2)n1 [Example 83, (R)—N-(4-(5-(2-methylpiperidin-1-yl)-5-oxopentyl)-1-phenyl-1H-imidazol-2-yl)-3-(1H-pyrazol-4-yl)benzamide] |
| > 100 nM | Nc1n[nH]cc1-c1cccc(C(=O)Nc2nc(CCC(=O)Nc3ccccc3)cn2-c2ccccc2)c1 [Example 2, 3-(3-amino-1H-pyrazol-4-yl)-N-(4-(3-oxo-3-(phenylamino)propyl)-1-phenyl-1H-imidazol-2-yl)benzamide] |
| > 100 nM | Cn1cc(-c2cccc(C(=O)Nc3nc(CCCC(=O)NC4CCNCC4)cn3-c3ccccc3)c2)cn1 [Example 214, 3-(1-methyl-1H-pyrazol-4-yl)-N-(4-(4-oxo-4-(piperidin-4-ylamino)butyl)-1-phenyl-1H-imidazol-2-yl)benzamide] |
| < 50 nM | CN1CCN(CCNC(=O)CCCc2cn(-c3ccccc3)c(NC(=O)c3cccc(-c4cnn(C)c4)c3)n2)CC1 [Example 187, 3-(1-methyl-1H-pyrazol-4-yl)-N-(4-(4-((2-(4-methylpiperazin-1-yl)ethyl)amino)-4-oxobutyl)-1-phenyl-1H-imidazol-2-yl)benzamide] |
| < 50 nM | O=C(Nc1nc(CCO)cn1-c1ccccc1)c1cccc(-c2cn[nH]c2)c1 [Example 103, N-(4-(2-hydroxyethyl)-1-phenyl-1H-imidazol-2-yl)-3-(1H-pyrazol-4-yl)benzamide] |
| < 50 nM | Cn1cc(-c2cccc(C(=O)Nc3nc(CCCC(=O)N4CCC(N)CC4)cn3-c3ccccc3)c2)cn1 [Example 209, N-(4-(4-(4-aminopiperidin-1-yl)-4-oxobutyl)-1-phenyl-1H-imidazol-2-yl)-3-(1-methyl-1H-pyrazol-4-yl)benzamide] |
| < 50 nM | O=C(Nc1nc(CCCCNC(=O)C2CC2)cn1-c1ccccc1)c1cccc(-c2ccc3[nH]ncc3c2)c1 [Example 261, N-(4-(4-(cyclopropanecarboxamido)butyl)-1-phenyl-1H-imidazol-2-yl)-3-(1H-indazol-5-yl)benzamide] |
| > 100 nM | O=C(Nc1nc(CCC(=O)N2CC[C@H](C(=O)O)C2)cn1-c1ccccc1)c1cccc(-c2cn[nH]c2)c1 [Example 26, (S)-1-(3-(2-(3-(1H-pyrazol-4-yl)benzamido)-1-phenyl-1H-imidazol-4-yl)propanoyl)pyrrolidine-3-carboxylic acid] |
| < 50 nM | O=C(CCCc1cn(-c2ccccc2)c(NC(=O)c2cccc(-c3ccc4[nH]ncc4c3)c2)n1)NC1CC1 [Example 245, N-(4-(4-(cyclopropylamino)-4-oxobutyl)-1-phenyl-1H-imidazol-2-yl)-3-(1H-indazol-5-yl)benzamide] |
| < 50 nM | C[C@@H]1CCC[C@H](C)N1C(=O)CCCCc1cn(-c2ccccc2)c(NC(=O)c2cccc(-c3cn[nH]c3)c2)n1 [Example 81, N-(4-(5-((2R,6S)-2,6-dimethylpiperidin-1-yl)-5-oxopentyl)-1-phenyl-1H-imidazol-2-yl)-3-(1H-pyrazol-4-yl)benzamide] |
| < 50 nM | O=C(Nc1nc(CCCCN2CCCCC2)cn1-c1ccccc1)c1cccc(-c2cccc3[nH]ncc23)c1 [Example 257, 3-(1H-indazol-4-yl)-N-(1-phenyl-4-(4-(piperidin-1-yl)butyl)-1H-imidazol-2-yl)benzamide] |
| < 50 nM | Cn1cc(-c2cccc(C(=O)Nc3nc(CCCC(=O)N4CCC(C)(C)CC4)cn3-c3ccccc3)c2)cn1 [Example 167, N-(4-(4-(4,4-dimethylpiperidin-1-yl)-4-oxobutyl)-1-phenyl-1H-imidazol-2-yl)-3-(1-methyl-1H-pyrazol-4-yl)benzamide] |
| < 50 nM | Cn1cc(-c2cccc(C(=O)Nc3nc(CCCC(=O)N4CCC[C@@H](N)C4)cn3-c3ccccc3)c2)cn1 [Example 210, (R)—N-(4-(4-(3-aminopiperidin-1-yl)-4-oxobutyl)-1-phenyl-1H-imidazol-2-yl)-3-(1-methyl-1H-pyrazol-4-yl)benzamide] |
| > 100 nM | O=C(CCc1cn(Cc2ccccc2)c(NC(=O)c2cccc(-c3cn[nH]c3)c2)n1)Nc1ccccc1 [Example 292, N-(1-benzyl-4-(3-oxo-3-(phenylamino)propyl)-1H-imidazol-2-yl)-3-(1H-pyrazol-4-yl)benzamide] |
| < 50 nM | Cn1cc(-c2cccc(C(=O)Nc3nc(CCCC(=O)NCC4CCOCC4)cn3-c3ccccc3)c2)cn1 [Example 172, 3-(1-methyl-1H-pyrazol-4-yl)-N-(4-(4-oxo-4-(((tetrahydro-2H-pyran-4-yl)methyl)amino)butyl)-1-phenyl-1H-imidazol-2-yl)benzamide] |
| < 50 nM | Cn1cc(-c2cccc(C(=O)Nc3nc(CCCC(=O)N4CCCC(O)C4)cn3-c3ccccc3)c2)cn1 (stereo not drawn) [Example 178, N-(4-(4-(3-hydroxypiperidin-1-yl)-4-oxobutyl)-1-phenyl-1H-imidazol-2-yl)-3-(1-methyl-1H-pyrazol-4-yl)benzamide] |
| < 50 nM | CN(C)c1ccc(NC(=O)CCCc2cn(-c3ccccc3)c(NC(=O)c3cccc(-c4cnn(C)c4)c3)n2)cc1 [Example 155, N-(4-(4-((4-(dimethylamino)phenyl)amino)-4-oxobutyl)-1-phenyl-1H-imidazol-2-yl)-3-(1-methyl-1H-pyrazol-4-yl)benzamide] |
| 50 to 100 nM | Cn1cc(-c2cccc(C(=O)Nc3nc(CCC(=O)N4CCNCC4)cn3-c3ccccc3)c2)cn1 [Example 203, 3-(1-methyl-1H-pyrazol-4-yl)-N-(4-(3-oxo-3-(piperazin-1-yl)propyl)-1-phenyl-1H-imidazol-2-yl)benzamide] |
| > 100 nM | O=C(CCc1cn(-c2ccncc2)c(NC(=O)c2cccc(-c3cn[nH]c3)c2)n1)Nc1ccccc1 [Example 303, N-(4-(3-oxo-3-(phenylamino)propyl)-1-(pyridin-4-yl)-1H-imidazol-2-yl)-3-(1H-pyrazol-4-yl)benzamide] |
| < 50 nM | C[C@@H]1CCC[C@H](C)N1C(=O)CCCc1cn(-c2ccccc2)c(NC(=O)c2cccc(-c3cn[nH]c3)c2)n1 [Example 63, N-(4-(4-((2R,6S)-2,6-dimethylpiperidin-1-yl)-4-oxobutyl)-1-phenyl-1H-imidazol-2-yl)-3-(1H-pyrazol-4-yl)benzamide] |
